ChEMBL document CHEMBL6096734, “Design, Synthesis and Anti-Inflammatory Evaluation of 3-Substituted 5-Amidobenzoate Derivatives as Novel P2Y14 Receptor Antagonists via Structure-Guided Molecular Hybridization” (J Med Chem, 2025)
Blank lines part the entries; values can stand above or below the compound they belong to. Calls of active or inactive are those of the source. The calls are words filed in the database; no cut-off is given here.

Tests used:
[1] = biological target: T1, P2Y purinoceptor 14 (Homo sapiens) (UniProt Q15391); details: time 30.0 min
T1 sequence (whole entry): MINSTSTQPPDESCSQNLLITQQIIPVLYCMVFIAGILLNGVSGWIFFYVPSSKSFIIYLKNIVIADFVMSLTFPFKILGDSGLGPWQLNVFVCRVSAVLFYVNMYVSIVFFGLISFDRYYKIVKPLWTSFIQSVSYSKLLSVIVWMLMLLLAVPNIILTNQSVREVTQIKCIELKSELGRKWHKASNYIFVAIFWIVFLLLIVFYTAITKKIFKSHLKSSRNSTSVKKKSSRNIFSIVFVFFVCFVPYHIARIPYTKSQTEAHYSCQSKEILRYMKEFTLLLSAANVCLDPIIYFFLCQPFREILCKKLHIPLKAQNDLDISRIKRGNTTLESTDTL

Mus musculus [2] = experiment: Anti-inflammatory activity in LPS-induced male C57BL/6 mouse model of acute […] injury assessed as decrease in TNF-alpha level at 2 mg/kg measured after 7 days; type: functional, organism-based; details: time 7.0 day
Mus musculus [3] = experiment: Anti-inflammatory activity in LPS-induced male C57BL/6 mouse model of acute […] injury assessed as reduction of lung edema at 2 mg/kg measured after 7 days by H and E staining based analysis; type: functional, organism-based; details: time 7.0 day
Mus musculus [4] = experiment: Anti-inflammatory activity in LPS-induced male C57BL/6 mouse model of acute […] injury assessed as decrease in Ly6G+ neutrophils in lung tissue at 2 mg/kg measured after 7 days by immunofluorescence analysis; type: functional, organism-based; details: time 7.0 day
Mus musculus [5] = experiment: Anti-inflammatory activity in LPS-induced male C57BL/6 mouse model of acute […] injury assessed as decrease NE level at 2 mg/kg measured after 7 days; type: functional, organism-based; details: time 7.0 day
Mus musculus [6] = experiment: Anti-inflammatory activity in LPS-induced male C57BL/6 mouse model of acute […] injury assessed as decrease in IL-1 beta level at 2 mg/kg measured after 7 days; type: functional, organism-based; details: time 7.0 day
Mus musculus [7] = experiment: Anti-inflammatory activity in LPS-induced male C57BL/6 mouse model of acute […] injury assessed as decrease in monocyte count in BALF at 2 mg/kg measured after 7 days; type: functional, organism-based; details: time 7.0 day
Mus musculus [8] = experiment: Anti-inflammatory activity in LPS-induced male C57BL/6 mouse model of acute […] injury assessed as decrease in caspase-1 expression at p20 subunit at 2 mg/kg measured after 7 days; type: functional, organism-based; details: time 7.0 day
Mus musculus [9] = experiment: Anti-inflammatory activity in LPS-induced male C57BL/6 mouse model of acute […] injury assessed as appearance of tight junction integrity at 2 mg/kg measured after 7 days by ZO-1 staining based immunofluorescence analysis; type: functional, organism-based; details: time 7.0 day
Mus musculus [10] = experiment: Anti-inflammatory activity in LPS-induced male C57BL/6 mouse model of acute […] injury assessed as decrease in NLRP3 expression at 2 mg/kg measured after 7 days; type: functional, organism-based; details: time 7.0 day
Mus musculus [11] = experiment: Anti-inflammatory activity in LPS-induced male C57BL/6 mouse model of acute […] injury assessed as reduction of neutrophil infiltration at 2 mg/kg measured after 7 days by H and E staining based analysis; type: functional, organism-based; details: time 7.0 day
Mus musculus [12] = experiment: Anti-inflammatory activity in LPS-induced male C57BL/6 mouse model of acute […] injury assessed as decrease in CCL2 level in serum at 2 mg/kg measured after 7 days by ELISA method; type: functional, organism-based; details: time 7.0 day
Mus musculus [13] = experiment: Anti-inflammatory activity in LPS-induced male C57BL/6 mouse model of acute […] injury assessed as decrease MPO level at 2 mg/kg measured after 7 days; type: functional, organism-based; details: time 7.0 day
Mus musculus [14] = experiment: Anti-inflammatory activity in LPS-induced male C57BL/6 mouse model of acute […] injury assessed as decrease dsDNA formation at 2 mg/kg measured after 7 days; type: functional, organism-based; details: time 7.0 day
Mus musculus [15] = experiment: Anti-inflammatory activity in LPS-induced male C57BL/6 mouse model of acute […] injury assessed as reduction in Wet/dry weight ratio at 2 mg/kg measured after 7 days; type: functional, organism-based; details: time 7.0 day
Mus musculus [16] = experiment: Anti-inflammatory activity in LPS-induced male C57BL/6 mouse model of acute […] injury assessed as decrease in GSDMD-N expression at 2 mg/kg measured after 7 days; type: functional, organism-based; details: time 7.0 day
Mus musculus [17] = experiment: Anti-inflammatory activity in LPS-induced male C57BL/6 mouse model of acute […] injury assessed as decrease in IL-6 level at 2 mg/kg measured after 7 days; type: functional, organism-based; details: time 7.0 day
Mus musculus [18] = experiment: Anti-inflammatory activity in LPS-induced male C57BL/6 mouse model of acute […] injury assessed as reduction of intravascular congestion at 2 mg/kg measured after 7 days by H and E staining based analysis; type: functional, organism-based; details: time 7.0 day
Mus musculus [19] = experiment: Anti-inflammatory activity in LPS-induced male C57BL/6 mouse model of acute […] injury assessed as decrease in lymphocyte count in BALF at 2 mg/kg measured after 7 days; type: functional, organism-based; details: time 7.0 day
Mus musculus [20] = experiment: Anti-inflammatory activity in LPS-induced male C57BL/6 mouse model of acute […] injury assessed as decrease in F4/80+ macrophage in lung tissue at 2 mg/kg measured after 7 days by immunofluorescence analysis; type: functional, organism-based; details: time 7.0 day
Mus musculus [21] = experiment: Anti-inflammatory activity in LPS-induced male C57BL/6 mouse model of acute […] injury assessed as decrease CXCL9 mRNA expression in lung at 2 mg/kg measured after 7 days by qPCR analysis; type: functional, organism-based; details: time 7.0 day
Mus musculus [22] = experiment: Anti-inflammatory activity in LPS-induced male C57BL/6 mouse model of acute […] injury assessed as decrease in neutrophil count in BALF at 2 mg/kg measured after 7 days; type: functional, organism-based; details: time 7.0 day
Mus musculus [23] = experiment: Anti-inflammatory activity in LPS-induced male C57BL/6 mouse model of acute […] injury assessed as decrease in ASC expression at 2 mg/kg measured after 7 days; type: functional, organism-based; details: time 7.0 day
Mus musculus [24] = experiment: Anti-inflammatory activity in LPS-induced male C57BL/6 mouse model of acute […] injury assessed as decrease in CCL2 mRNA expression in lung at 2 mg/kg measured after 7 days by qPCR analysis; type: functional, organism-based; details: time 7.0 day
Mus musculus [25] = experiment: Anti-inflammatory activity in LPS-induced male C57BL/6 mouse model of acute […] injury assessed as decrease in CXCL10 mRNA expression in lung at 2 mg/kg measured after 7 days by qPCR analysis; type: functional, organism-based; details: time 7.0 day
Mus musculus [26] = experiment: Anti-inflammatory activity in LPS-induced male C57BL/6 mouse model of acute […] injury assessed as decrease in CXCL1 level in serum at 2 mg/kg measured after 7 days by ELISA method; type: functional, organism-based; details: time 7.0 day
Mus musculus [27] = experiment: Anti-inflammatory activity in LPS-induced male C57BL/6 mouse model of acute […] injury assessed as decrease in caspase-1 expression at p10 subunit at 2 mg/kg measured after 7 days; type: functional, organism-based; details: time 7.0 day
Mus musculus [28] = experiment: Anti-inflammatory activity in LPS-induced male C57BL/6 mouse model of acute […] injury assessed as reduction of interstitial hemorrhage at 2 mg/kg measured after 7 days by H and E staining based analysis; type: functional, organism-based; details: time 7.0 day
Mus musculus [29] = experiment: Anti-inflammatory activity in LPS-induced male C57BL/6 mouse model of acute […] injury assessed as decrease in total WBC count in BALF at 2 mg/kg measured after 7 days; type: functional, organism-based; details: time 7.0 day
Mus musculus [30] = experiment: Anti-inflammatory activity in LPS-induced male C57BL/6 mouse model of acute […] injury assessed as alveolar wall thickening at 2 mg/kg measured after 7 days by H and E staining based analysis; type: functional, organism-based; details: time 7.0 day
Mus musculus [31] = experiment: Anti-inflammatory activity in LPS-induced male C57BL/6 mouse model of acute […] injury assessed as decrease in CXCL1 mRNA expression in lung at 2 mg/kg measured after 7 days by qPCR analysis; type: functional, organism-based; details: time 7.0 day
P2Y purinoceptor 14 = biological target: T2, P2Y purinoceptor 14 (Homo sapiens, UniProt Q15391); experiment: Antagonist activity at human P2Y14R stably expressed in HEK293 cells assessed as inhibition of UDPG-induced cAMP accumulation at 100 nM incubated for 30 mins in presence of forskolin by cAMP-Glo assay relative to control; type: functional, cell-based
T2 sequence (Q15391 whole entry): T1 sequence (whole entry)

[32] = HEK293, filed as antagonist, dose 100.0 nM

Compound: C[C@@H]1C[C@H]2[C@@H]3CCC4=CC(=O)C=C[C@]4(C)[C@@]3(F)[C@@H](O)C[C@]2(C)[C@@]1(O)C(=O)CO
Activity (Mus musculus [2]): Active
Activity (Mus musculus [3]): Active
Activity (Mus musculus [4]): Active
Activity (Mus musculus [5]): Active
Activity (Mus musculus [6]): Active
Activity (Mus musculus [7]): Active
Activity (Mus musculus [8]): Active
Activity (Mus musculus [9]): Active
Activity (Mus musculus [10]): Active
Activity (Mus musculus [11]): Active
Activity (Mus musculus [12]): Active
Activity (Mus musculus [13]): Active
Activity (Mus musculus [14]): Active
Activity (Mus musculus [15]): Active
Activity (Mus musculus [16]): Active
Activity (Mus musculus [17]): Active
Activity (Mus musculus [18]): Active
Activity (Mus musculus [19]): Active
Activity (Mus musculus [20]): Active
Activity (Mus musculus [21]): Active
Activity (Mus musculus [22]): Active
Activity (Mus musculus [23]): Active
Activity (Mus musculus [24]): Active
Activity (Mus musculus [25]): Active
Activity (Mus musculus [26]): Active
Activity (Mus musculus [27]): Active
Activity (Mus musculus [28]): Active
Activity (Mus musculus [29]): Active
Activity (Mus musculus [30]): Active
Activity (Mus musculus [31]): Active

Compound: COC(=O)c1cc(NC(=O)Cc2ccc(C)cc2C)cc(-c2nc3ccccc3o2)c1
inhibition [1, 32]: 42.3%

Compound: COC(=O)c1cc(NC(=O)Cc2ccc(C)cc2)cc(-c2nc3ccccc3s2)c1
inhibition ([1]; HEK293, dose 100.0 nM): 34.7%

Compound: Cc1ccc(CC(=O)Nc2cc(C(=O)NCCOCCOCCOCCNC(=O)CCCC[C@H]3SC[C@H]4NC(=O)N[C@H]43)cc(-c3nc4ccccc4[nH]3)c2)cc1
IC50 (P2Y purinoceptor 14): 0.84 nM

Compound: COC(=O)c1cc(NC(=O)Cc2ccccc2)cc(-c2nc3ccccc3o2)c1
inhibition [1, 32]: 48.6%

Compound: COc1ccc(CC(=O)Nc2cc(C(=O)O)cc(-c3nc4ccccc4o3)c2)cc1
inhibition [1, 32]: 48%

Compound: COC(=O)c1cc(NC(=O)Cn2cccc2)cc(-c2nc3ccccc3o2)c1
inhibition ([1]; HEK293, dose 100.0 nM): 26.3%

Compound: O=C(Cc1ccc(C(F)(F)F)cc1)Nc1cc(C(=O)O)cc(-c2nc3ccccc3o2)c1
inhibition ([1]; HEK293, dose 100.0 nM): 23.1%

Compound: O=C(Cn1cncn1)Nc1cc(C(=O)O)cc(-c2nc3ccccc3o2)c1
inhibition ([1]; HEK293, dose 100.0 nM): 38.3%

Compound: O=C(Cn1cccc1)Nc1cc(C(=O)O)cc(-c2nc3ccccc3o2)c1
inhibition [1, 32]: 43.2%

Compound: COC(=O)c1cc(NC(=O)Cc2ccc(C)c(C)c2)cc(-c2nc3ccccc3o2)c1
inhibition ([1]; HEK293, dose 100.0 nM): 34.5%

Compound: COC(=O)c1cc(NC(=O)Cn2cncn2)cc(-c2nc3ccccc3o2)c1
inhibition [1, 32]: 41.5%

Compound: O=C(Cc1ccc(F)cc1)Nc1cc(C(=O)O)cc(-c2nc3ccccc3o2)c1
inhibition ([1]; HEK293, dose 100.0 nM): 30.8%

Compound: O=C(Cc1ccccc1)Nc1cc(C(=O)O)cc(-c2nc3ccccc3o2)c1
inhibition ([1]; HEK293, dose 100.0 nM): 35.2%

Compound: COC(=O)c1cc(NC(=O)Cc2ccc(OC)cc2)cc(-c2nc3ccccc3o2)c1
inhibition ([1]; HEK293, dose 100.0 nM): 39.3%

Second part, the compound after the results:

inhibition ([1]; HEK293, dose 100.0 nM): inactive
Compound: COC(=O)c1cc(NC(=O)Cc2ccc(F)cc2)cc(-c2nc3ccccc3o2)c1

inhibition ([1]; HEK293, dose 100.0 nM): 36.5%
Compound: COC(=O)c1cc(NC(=O)Cc2cccs2)cc(-c2nc3ccccc3o2)c1

inhibition ([1]; HEK293, dose 100.0 nM): 24.2%
Compound: O=C(Cc1ccc(-n2cccc2)cc1)Nc1cc(C(=O)O)cc(-c2nc3ccccc3o2)c1

inhibition ([1]; HEK293, dose 100.0 nM): 32.3%
Compound: COC(=O)c1cc(NC(=O)Cc2ccc(-n3cccc3)cc2)cc(-c2nc3ccccc3o2)c1

inhibition ([1]; HEK293, dose 100.0 nM): 20.9%
Compound: O=C(Cc1ccc(Br)cc1)Nc1cc(C(=O)O)cc(-c2nc3ccccc3o2)c1

inhibition [1, 32]: 46.1%
Compound: N#Cc1ccc(CC(=O)Nc2cc(C(=O)O)cc(-c3nc4ccccc4o3)c2)cc1

inhibition ([1]; HEK293, dose 100.0 nM): 39.8%
Compound: O=C(Cc1cccs1)Nc1cc(C(=O)O)cc(-c2nc3ccccc3o2)c1
